# According to patent publication US20250230193A1, “CYCLIC COMPOUND HAVING SELECTIVE KRAS INHIBITORY EFFECT ON HRAS AND NRAS” (CHUGAI SEIYAKU KABUSHIKI KAISHA, priority 2022, published 2025):
# Where a SMILES comes first, the peptide text is derived from it. Bridges are numbered along the chain shown (N, C = ends). [ ]: non-standard residue; d: D form. The star is where a group is joined. hPhe(3,5-F2-4-CF3) = N[C@@H](CCc1cc(F)c(C(F)(F)F)c(F)c1)C(=O)O; hPhe(3-Cl-4-CF3) = N[C@@H](CCc1ccc(C(F)(F)F)c(Cl)c1)C(=O)O; NPrPhe(4-CF3) = CCCN[C@@H](Cc1ccc(C(F)(F)F)cc1)C(=O)O; NMeGly(cPent) = CN[C@H](C(=O)O)C1CCCC1; Pro(4,4-F2) = O=C(O)[C@@H]1CC(F)(F)CN1; αMeCha = C[C@](N)(CC1CCCCC1)C(=O)O; NMeD = CN[C@@H](CC(=O)O)C(=O)O; NMeL = CN[C@@H](CC(C)C)C(=O)O; Pip = O=C(O)[C@@H]1CCCCN1; Morpholide = C1CN(*)CCO1; NMeA = CN[C@@H](C)C(=O)O; Ac5c = NC1(C(=O)O)CCCC1; Aze = O=C(O)[C@@H]1CCN1; Sar = CNCC(=O)O
# How the values were obtained:
# [1] = biological target: GDP-bound NRAS wild-type protein (Homo sapiens, UniProt P01111); test: Binding to NRAS by surface plasmon resonance (SPR), Single Cycle Kinetics
# [2] = biological target: GDP-bound HRAS wild-type protein (Homo sapiens, UniProt P01112); test: Binding to HRAS by surface plasmon resonance (SPR), Single Cycle Kinetics
# Sequence of GDP-bound HRAS wild-type protein (P01112 whole entry): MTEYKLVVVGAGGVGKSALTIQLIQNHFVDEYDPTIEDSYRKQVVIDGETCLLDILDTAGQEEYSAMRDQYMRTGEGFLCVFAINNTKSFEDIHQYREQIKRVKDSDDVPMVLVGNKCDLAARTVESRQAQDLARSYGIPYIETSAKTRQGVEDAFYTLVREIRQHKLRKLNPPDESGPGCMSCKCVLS
# Sequence of GDP-bound NRAS wild-type protein (P01111 whole entry): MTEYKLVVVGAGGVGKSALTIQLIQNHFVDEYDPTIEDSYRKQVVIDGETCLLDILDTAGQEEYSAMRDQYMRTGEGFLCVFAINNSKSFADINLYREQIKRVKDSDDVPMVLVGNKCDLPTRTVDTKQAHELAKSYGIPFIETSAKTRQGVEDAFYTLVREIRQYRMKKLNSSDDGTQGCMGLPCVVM
smiles,measurement,setting,value
"CCCN1C(=O)[C@@H]2CCN2C(=O)CN(C)C(=O)[C@H]([C@@H](C)CC)NC(=O)[C@H](CC(C)C)N(C)C(=O)C[C@@H](C(=O)N2CCOCC2)N(C)C(=O)[C@H](C2CCCC2)N(C)C(=O)[C@](C)(CC2CCCCC2)NC(=O)[C@@H]2CCCN2C(=O)[C@H](CCc2cc(F)c(C(F)(F)F)c(F)c2)NC(=O)CN(C)C(=O)[C@@H]1Cc1ccc(C(F)(F)F)cc1 [PP0796] ([NMeL]I[Sar][Aze][NPrPhe(4-CF3)][Sar][hPhe(3,5-F2-4-CF3)]P[αMeCha][NMeGly(cPent)][NMeD]-Morpholide; lactam N-11)",NRAS/KRAS (ratio of KD value with respect to GDP-bound NRAS wild-type protein to KD value with respect to KRAS),[1]; SPR,C (A compound having a KD ratio of 0.1 or more and less than 3 is denoted as C)
same,HRAS/KRAS (ratio of KD value with respect to GDP-bound HRAS wild-type protein to KD value with respect to KRAS),[2]; SPR,B (a compound having 3 or more and less than 10 is denoted as B)
CCO[C@@H]1C[C@H]2C(=O)NC3(CC(C)(C)C3)C(=O)N(C)[C@@H](C(CC)CC)C(=O)N(C)[C@H](C(=O)N3CCCC3)CC(=O)N(C)[C@@H](COC)C(=O)N[C@@H]([C@@H](C)CC)C(=O)N(C)CC(=O)N(C)[C@H]3C/C=C\CCN(C3=O)[C@@H](Cc3ccc(C(F)(F)F)cc3)C(=O)N(C)CC(=O)N[C@@H](CCc3cc(F)c(C(F)(F)F)c(F)c3)C(=O)N2C1 [PP2123],NRAS/KRAS (ratio of KD value with respect to NRAS to KD value with respect to KRAS),"[1]; SPR, GDP-bound NRAS wild-type vs GDP-bound KRAS wild-type",A (a compound having 10 or more and less than 20 is denoted as A)
same,HRAS/KRAS (ratio of KD value with respect to HRAS to KD value with respect to KRAS),"[2]; SPR, GDP-bound HRAS wild-type vs GDP-bound KRAS wild-type",A (a compound having 10 or more and less than 20 is denoted as A)
CCC[C@H]1C(=O)N[C@@H]([C@@H](C)CC)C(=O)N(C)CC(=O)N(C)[C@H]2C/C=C\CCN(C2=O)[C@@H](Cc2ccc(C)cc2)C(=O)N(C)CC(=O)N[C@@H](CCc2ccc(C(F)(F)F)c(OC)c2)C(=O)N2C[C@H](OCC)C[C@H]2C(=O)NC2(CC(C)(C)C2)C(=O)N(C)[C@@H](CC2CCC2)C(=O)N(C)[C@H](C(=O)N(C)C)CC(=O)N1C [PP2753],NRAS/KRAS (ratio of KD value with respect to GDP-bound NRAS wild-type protein to KD value with respect to KRAS),[1]; class symbols,A (a compound having 10 or more and less than 20 is denoted as A)
same,HRAS/KRAS (ratio of KD value with respect to GDP-bound HRAS wild-type protein to KD value with respect to KRAS),[2]; class symbols,B (a compound having 3 or more and less than 10 is denoted as B)
"CCCN1C(=O)CN(C)C(=O)[C@@H]2CCN2C(=O)[C@H]([C@@H](C)CC)NC(=O)[C@H](CC(C)C)N(C)C(=O)C[C@@H](C(=O)N2CCOCC2)N(C)C(=O)[C@H](C2CCCC2)N(C)C(=O)C2(CCCC2)NC(=O)[C@@H]2CC(F)(F)CN2C(=O)[C@H](CCc2ccc(C(F)(F)F)c(Cl)c2)NC(=O)CN(C)C(=O)[C@@H]1Cc1ccc(C(F)(F)F)cc1 [PP0403] ([NMeL]I[Aze][Sar][NPrPhe(4-CF3)][Sar][hPhe(3-Cl-4-CF3)][Pro(4,4-F2)][Ac5c][NMeGly(cPent)][NMeD]-Morpholide; lactam N-11)",NRAS/KRAS (ratio of KD for GDP-bound NRAS wild-type to KD for KRAS),[1]; SPR,B (a compound having 3 or more and less than 10 is denoted as B)
same,HRAS/KRAS (ratio of KD for GDP-bound HRAS wild-type to KD for KRAS),[2]; SPR,B (a compound having 3 or more and less than 10 is denoted as B)
CCCN1C(=O)[C@@H]2CCN2C(=O)[C@H](C)N(C)C(=O)[C@H]([C@@H](C)CC)NC(=O)[C@H](CC(C)C)N(C)C(=O)C[C@@H](C(=O)N2CCOCC2)N(C)C(=O)[C@H](C2CCCC2)N(C)C(=O)C2(CCCC2)NC(=O)[C@@H]2CCCCN2C(=O)[C@H](CCc2ccc(C(F)(F)F)c(Cl)c2)NC(=O)CN(C)C(=O)[C@@H]1Cc1ccc(C(F)(F)F)cc1 [PP0284] ([NMeL]I[NMeA][Aze][NPrPhe(4-CF3)][Sar][hPhe(3-Cl-4-CF3)][Pip][Ac5c][NMeGly(cPent)][NMeD]-Morpholide; lactam N-11),NRAS/KRAS (ratio of KD for GDP-bound NRAS wild-type to KD for KRAS),[1]; SPR,C (A compound having a KD ratio of 0.1 or more and less than 3 is denoted as C)
same,HRAS/KRAS (ratio of KD for GDP-bound HRAS wild-type to KD for KRAS),[2]; SPR,B (a compound having 3 or more and less than 10 is denoted as B)
"CCCN1C(=O)CN(C)C(=O)CNC(=O)[C@H]([C@@H](C)CC)NC(=O)[C@H](CC(C)C)N(C)C(=O)C[C@@H](C(=O)N2CCOCC2)N(C)C(=O)[C@H](C2CCCC2)N(C)C(=O)C2(CCCC2)NC(=O)[C@@H]2CC(F)(F)CN2C(=O)[C@H](CCc2ccc(C(F)(F)F)c(Cl)c2)NC(=O)CN(C)C(=O)[C@@H]1Cc1ccc(C(F)(F)F)cc1 [PP0394] ([NMeL]IG[Sar][NPrPhe(4-CF3)][Sar][hPhe(3-Cl-4-CF3)][Pro(4,4-F2)][Ac5c][NMeGly(cPent)][NMeD]-Morpholide; lactam N-11)",NRAS/KRAS (ratio of KD for GDP-bound NRAS wild-type to KD for KRAS),[1]; SPR,C (A compound having a KD ratio of 0.1 or more and less than 3 is denoted as C)
same,HRAS/KRAS (ratio of KD for GDP-bound HRAS wild-type to KD for KRAS),[2]; SPR,C (A compound having a KD ratio of 0.1 or more and less than 3 is denoted as C)
C#CC[C@H]1C(=O)N[C@@H]([C@@H](C)CC)C(=O)N(C)CC(=O)N(C)[C@H]2CCCCN(C2=O)[C@@H](Cc2ccc(C(F)(F)F)cc2)C(=O)N(C)CC(=O)N[C@@H](CCc2cc(F)c(C(F)(F)F)c(F)c2)C(=O)N2C[C@H](OCC)C[C@H]2C(=O)NC2(CCC2)C(=O)N(C)[C@@H](C2CCCC2)C(=O)N(C)[C@H](C(=O)N2CCOCC2)CC(=O)N1C [PP0711],NRAS/KRAS (ratio of KD value with respect to GDP-bound NRAS wild-type protein to KD value with respect to KRAS),[1]; SPR,C (A compound having a KD ratio of 0.1 or more and less than 3 is denoted as C)
same,HRAS/KRAS (ratio of KD value with respect to GDP-bound HRAS wild-type protein to KD value with respect to KRAS),[2]; SPR,B (a compound having 3 or more and less than 10 is denoted as B)
